Assay results from patent publication US6897316B2, “Substituted 2-phenyl-4-quinolone-3-carboxylic acid compounds and their use as antitumor agents” (China Medical University, priority 2003, dated 2005).
Values after ≈ are worked out from the molar mass of the structure shown.

Experiments:
OVCAR-4 (ovarian cancer) = assay: Growth inhibition in human cancer cell line panel, OVCAR-4; format: cell-based; details: 48 hr, SRB
Description: Compound IX-8 was evaluated growth inhibition activities against a panel of 39 human cancer cell lines including Human breast cancer MDA-MB-231 and the following human cancer cell lines were generously distributed by the National Cancer Institute (Frederick, Md.): lung cancer, NCI-H23, NCI-H226, NCI-H522, NCI-H460, A-549, DMS273 and DMS114; colon cancer, HGC-2998, KM-12, HT-29, HCT-15, and HCT-116; ovarian cancer, OVCAR-3, OVCAR-4, OVCAR-5, OVCAR-8, and SKOV-3; breast cancer, MCF-7; renal cancer, RXF-631L and ACHN; melanoma, LOX-IMVI; brain tumor, U251, SF-295, SF-539, SF-268, SNB-75, and SNB-78, and prostate cancer, DU-145 and PC-3. […]
The details of measuring cell growth inhibition are described elsewhere [Monks, A., Scudiero, D., Skehan, P., Shoemaker, R., Paull, K., Vistica, D., Hose, C., Langley, J., Cronise, P., Vaigro-Wolff, A., Gray-Goodrich, M., Campbell, H., Mayo, J., Boyd, M. Feasibility of a high-flux anticancer drug screen using a diverse panel of cultured human tumor cell lines. […] Then, the cell growth was determined according to the Sulforhodamine B assay, described by Skehan et al [Skehan, P., Storeng, R., Scudiero, D., Monks, A., McMahon, J., Vistica, D., Warren, J. T., Bokesch, H., Kenney, S., Boyd, M. R. New calorimetric cytotoxicity assay for anticancer-drug screening. […]

[1] = test system: glioblastoma (U87-MG) cell line; assay: Activity against HTCL replication, U87-MG; format: cell-based, human; details: mean ED50
Description: Compounds were assayed for in vitro cytotoxicity in a panel of human tumor cell lines at the School of Pharmacy, University of North Carolina at Chapel Hill, according to procedures described previously [Lee, K. H., Lin, Y. M., Wu, T. S., Zhang, D. C., Yamagishi, T., Hayashi, T., Hall, I. H., Chang, J. J., Wu, R. Y., Yang, T. H. The cytotoxic principles of Prunella vulgaris, Psychotria serpens, and Hyptis capitata: Ursolic acid and related derivatives. Planta Med. 1988, 54, 308-11; Boyd, M. R. Status of the National Cancer Institute preclinical antitumor drug discovery screen: implications for selection of new agents for clinical trial. Devita, V. T., Jr. Hellman, S., Rosenberg, S. A., Eds, J. B. Cancer: Principles and Practice of Oncology Update, 1989, 3: pp1-12, Lippincoft: Philadephia; Monks, A., Scudiero, D., Skehan, P., Shoemaker, R., Paull, K., Vistica, D., Hose, C., Langley, J., Cronise, P., Vaigro-Wolff, A., Gray-Goodrich, M., Campbell, H., Mayo, J., Boyd, M. Feasibility of a high-flux anticancer drug screen using a diverse panel of cultured human tumor cell lines. J. Natl. Cancer Inst. 1991, 83, 757-66.] […]

GI50 (OVCAR-4 (ovarian cancer)): 174 nM
Structure (SMILES): COc1ccc2[nH]c(-c3cccc(F)c3)c(C(=O)O)c(=O)c2c1 [IX-8, 3′-Fluoro-6-methoxy-2-phenyl-4-quinolone-3-carboxylic acid]
ED50 U87-MG [1]: 1.50 µg/mL (≈ 4.79 µM)
